Experimental data from US12139520B2 (priority 2020, dated 2024).
Bridge positions count the residues as written; N and C are the ends. Square brackets hold non-standard residues; d marks the D form. Peptide text beside a SMILES is read from it. Hyp = O=C(O)[C@@H]1C[C@@H](O)CN1

Experiments:
[1] = Physical stability of peptide analogues (Thioflavin T fibrillation); type: physicochemical; details: maximum ThT signal normalized between hAMY maximum and buffer background; 40° C., shaking, four days; pH 7 per table title
How it was run: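 1 h in 50 mM NaOAc pH 4 / 50 mM NaPi pH 7; + ThT 4 μM final; 40 °C, 700 rpm linear shake 5 min pre-read; ex 450, em 480 nm q10 min × 4 d; LOESS smoothing; max signal normalised to hAMY max vs buffer blank.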

hAM1 receptor = hAM1 receptor (Homo sapiens, UniProt O60895+Q16602); assay: cAMP assay for in vitro receptor activation, hAM1-R; type: cell-based; details: cAMP assay, hAM1 receptor; read-out: hAM1R EC50
How it was run: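 cAMP accumulation was measured in a monoclonal cell line stably overexpressing the hAM1 receptor. Frozen aliquots were thawed and plated at 8000 cells/well in DPBS containing 0.05% casein and 0.5 mM IBMX.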

hAMY3 receptor = biological target: T1, hAMY3 receptor (Homo sapiens, UniProt O60896+P30988); assay: cAMP assay for in vitro receptor activation, hAMY3-R; type: cell-based; details: cAMP assay, hAMY3 receptor; read-out: hAMY3R EC50
T1 sequence (P30988 25-474): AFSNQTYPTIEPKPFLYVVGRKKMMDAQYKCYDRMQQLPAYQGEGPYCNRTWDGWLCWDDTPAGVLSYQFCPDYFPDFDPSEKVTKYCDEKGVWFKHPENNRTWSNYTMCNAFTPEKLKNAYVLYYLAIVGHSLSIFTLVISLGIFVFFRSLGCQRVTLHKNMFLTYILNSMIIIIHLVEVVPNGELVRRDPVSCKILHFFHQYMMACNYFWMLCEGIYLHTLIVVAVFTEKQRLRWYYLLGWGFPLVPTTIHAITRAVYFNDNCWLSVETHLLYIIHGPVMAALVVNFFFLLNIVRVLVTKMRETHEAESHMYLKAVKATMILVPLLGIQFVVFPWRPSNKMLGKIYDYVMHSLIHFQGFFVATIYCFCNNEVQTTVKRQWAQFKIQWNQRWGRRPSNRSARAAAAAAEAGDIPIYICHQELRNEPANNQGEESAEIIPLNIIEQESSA
T1 sequence (O60896 24-148 partner): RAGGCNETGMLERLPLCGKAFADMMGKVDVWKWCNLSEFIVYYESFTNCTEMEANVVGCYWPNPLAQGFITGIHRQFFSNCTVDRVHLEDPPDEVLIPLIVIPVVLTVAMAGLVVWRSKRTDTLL
How it was run: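 Monoclonal cell line stably overexpressing hAMY3 receptor, plated in DPBS with 0.05% casein and 0.5 mM IBMX, was stimulated with graded compound doses for 30 min at room temperature. cAMP accumulation was read by time-resolved FRET one hour after adding detection reagents.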

Sequence of hAM1 receptor (Q16602 23-461): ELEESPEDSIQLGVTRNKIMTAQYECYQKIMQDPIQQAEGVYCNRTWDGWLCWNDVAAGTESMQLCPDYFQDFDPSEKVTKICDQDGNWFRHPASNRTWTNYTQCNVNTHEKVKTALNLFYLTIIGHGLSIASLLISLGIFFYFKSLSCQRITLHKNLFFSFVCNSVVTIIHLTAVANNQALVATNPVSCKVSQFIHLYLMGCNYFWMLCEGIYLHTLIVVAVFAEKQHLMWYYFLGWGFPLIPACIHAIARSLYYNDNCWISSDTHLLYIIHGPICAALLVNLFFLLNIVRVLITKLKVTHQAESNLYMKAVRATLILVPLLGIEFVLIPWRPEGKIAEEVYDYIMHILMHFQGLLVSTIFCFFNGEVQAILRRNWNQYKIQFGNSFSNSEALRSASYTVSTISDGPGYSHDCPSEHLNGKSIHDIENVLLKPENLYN
Sequence of hAM1 receptor (O60895 43-175 partner): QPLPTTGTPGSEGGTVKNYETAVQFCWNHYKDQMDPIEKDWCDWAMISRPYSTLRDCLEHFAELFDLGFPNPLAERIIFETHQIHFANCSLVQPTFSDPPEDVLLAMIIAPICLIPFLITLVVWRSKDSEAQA

Structure (SMILES)	Max ThT signal (%) [1] [%]	EC50 (hAM1 receptor) [nM]	EC50 (hAMY3 receptor) [nM]
CC[C@H](C)[C@H](NC(=O)[C@H](CCC(N)=O)NC(=O)[C@H](Cc1c[nH]cn1)NC(=O)[C@H](C)NC(=O)[C@H](CC(C)C)NC(=O)[C@H](CCCNC(=N)N)NC(=O)[C@H](CCC(N)=O)NC(=O)[C@@H](NC(=O)[C@@H](NC(=O)[C@@H]1CSSC[C@H](NC(=O)CN)C(=O)N[C@@H](CCCNC(=N)N)C(=O)N[C@@H](CCSC)C(=O)NCC(=O)N[C@@H]([C@@H](C)O)C(=O)N1)[C@@H](C)O)C(C)C)C(=O)N[C@@H](Cc1ccc(O)cc1)C(=O)N[C@@H](CCC(N)=O)C(=O)N[C@@H](Cc1ccccc1)C(=O)N[C@H](C(=O)N[C@@H](CC(N)=O)C(=O)N[C@@H](CCCCN)C(=O)N[C@@H](CC(=O)O)C(=O)N[C@@H](CCCCN)C(=O)N[C@@H](CC(=O)O)C(=O)N[C@@H](CC(N)=O)C(=O)N[C@H](C(=O)N[C@@H](C)C(=O)N1CCC[C@H]1C(=O)N[C@@H](CCCNC(=N)N)C(=O)N[C@@H](CO)C(=O)N[C@@H](CCCCN)C(=O)N[C@H](C(=O)N[C@@H](CO)C(=O)N1CCC[C@H]1C(=O)N[C@@H](CCC(N)=O)C(=O)N[C@H](C(=O)N1C[C@H](O)C[C@H]1C(N)=O)[C@@H](C)O)[C@@H](C)CC)C(C)C)[C@@H](C)O [compound 192] (H-GCRMGTCTVQRLAHQIYQFTNKDKDNVAPRSKISPQT[Hyp]-NH2; disulfide 2-7; N-terminus assumed)	4.100	> 5000	0.098
CC[C@H](C)[C@H](NC(=O)[C@H](CCC(N)=O)NC(=O)[C@H](Cc1c[nH]cn1)NC(=O)[C@H](C)NC(=O)[C@H](CC(C)C)NC(=O)[C@H](CCCNC(=N)N)NC(=O)[C@H](CCC(N)=O)NC(=O)[C@@H](NC(=O)[C@@H](NC(=O)[C@@H]1CSSC[C@H](NC(=O)[C@@H](N)CCCCN)C(=O)N[C@@H](CC(N)=O)C(=O)N[C@@H]([C@@H](C)O)C(=O)N[C@@H](C)C(=O)N[C@@H]([C@@H](C)O)C(=O)N1)[C@@H](C)O)C(C)C)C(=O)N[C@@H](Cc1ccc(O)cc1)C(=O)N[C@@H](CCC(N)=O)C(=O)N[C@H](C(=O)N[C@@H](CC(=O)O)C(=O)N[C@@H](CCCCN)C(=O)N[C@@H](CC(=O)O)C(=O)N[C@@H](CCCCN)C(=O)N[C@@H](CC(=O)O)C(=O)N[C@@H](CC(N)=O)C(=O)N[C@H](C(=O)N[C@@H](C)C(=O)N1CCC[C@H]1C(=O)N1CCC[C@H]1C(=O)N[C@H](C(=O)N[C@@H](CC(N)=O)C(=O)N[C@H](C(=O)NCC(=O)N[C@@H](CO)C(=O)N[C@@H](CC(N)=O)C(=O)NCC(=O)N1C[C@H](O)C[C@H]1C(N)=O)C(C)C)[C@@H](C)O)C(C)C)[C@@H](C)O [compound 195] (H-KCNTATCTVQRLAHQIYQTDKDKDNVAPPTNVGSNG[Hyp]-NH2; disulfide 2-7; N-terminus assumed)	6.100	> 5000	0.112
CC[C@H](C)[C@H](NC(=O)[C@H](CCC(N)=O)NC(=O)[C@H](Cc1c[nH]cn1)NC(=O)[C@H](C)NC(=O)[C@H](CC(C)C)NC(=O)[C@H](CCCNC(=N)N)NC(=O)[C@H](CCC(N)=O)NC(=O)[C@@H](NC(=O)[C@@H](NC(=O)[C@@H]1CSSC[C@H](NC(=O)CN)C(=O)N[C@@H](CCCNC(=N)N)C(=O)N[C@@H](Cc2c[nH]c3ccccc23)C(=O)NCC(=O)N[C@@H]([C@@H](C)O)C(=O)N1)[C@@H](C)O)C(C)C)C(=O)N[C@@H](Cc1ccc(O)cc1)C(=O)N[C@@H](CCC(N)=O)C(=O)N[C@@H](Cc1ccccc1)C(=O)N[C@H](C(=O)N[C@@H](CC(=O)O)C(=O)N[C@@H](CCCCN)C(=O)N[C@@H](CC(=O)O)C(=O)N[C@@H](CCCCN)C(=O)N[C@@H](CC(=O)O)C(=O)N[C@@H](CC(N)=O)C(=O)N[C@H](C(=O)N[C@@H](C)C(=O)N1CCC[C@H]1C(=O)N[C@@H](CO)C(=O)N[C@@H](CO)C(=O)N[C@@H](CCCCN)C(=O)N[C@H](C(=O)N[C@@H](CO)C(=O)N1CCC[C@H]1C(=O)N[C@@H](CCC(N)=O)C(=O)N[C@H](C(=O)N1C[C@H](O)C[C@H]1C(N)=O)[C@@H](C)O)[C@@H](C)CC)C(C)C)[C@@H](C)O [compound 202] (H-GCRWGTCTVQRLAHQIYQFTDKDKDNVAPSSKISPQT[Hyp]-NH2; disulfide 2-7)	12.600	> 5000	0.126
CC[C@H](C)[C@H](NC(=O)[C@H](CCC(N)=O)NC(=O)[C@H](Cc1c[nH]cn1)NC(=O)[C@H](C)NC(=O)[C@H](CC(C)C)NC(=O)[C@H](CCCNC(=N)N)NC(=O)[C@H](CCC(N)=O)NC(=O)[C@@H](NC(=O)[C@@H](NC(=O)[C@@H]1CSSC[C@H](NC(=O)CN)C(=O)N[C@@H](CCCNC(=N)N)C(=O)N[C@@H]([C@@H](C)O)C(=O)NCC(=O)N[C@@H]([C@@H](C)O)C(=O)N1)[C@@H](C)O)C(C)C)C(=O)N[C@@H](Cc1ccc(O)cc1)C(=O)N[C@@H](CCC(N)=O)C(=O)N[C@@H](Cc1ccccc1)C(=O)N[C@H](C(=O)N[C@@H](CC(=O)O)C(=O)N[C@@H](CCCCN)C(=O)N[C@@H](Cc1ccccc1)C(=O)N[C@@H](CCCCN)C(=O)N[C@@H](CC(=O)O)C(=O)N[C@@H](CC(N)=O)C(=O)N[C@H](C(=O)N[C@@H](C)C(=O)N1CCC[C@H]1C(=O)N[C@@H](CCCNC(=N)N)C(=O)N[C@@H](CO)C(=O)N[C@@H](CCCCN)C(=O)N[C@H](C(=O)N[C@@H](CO)C(=O)N1CCC[C@H]1C(=O)N[C@@H](CCC(N)=O)C(=O)N[C@@H](CCCCN)C(=O)N1C[C@H](O)C[C@H]1C(N)=O)[C@@H](C)CC)C(C)C)[C@@H](C)O [compound 206] (H-GCRTGTCTVQRLAHQIYQFTDKFKDNVAPRSKISPQK[Hyp]-NH2; disulfide 2-7; N-terminus assumed)	1.500	> 5000	0.13
CC[C@H](C)[C@H](NC(=O)[C@H](CCC(N)=O)NC(=O)[C@H](Cc1c[nH]cn1)NC(=O)[C@H](C)NC(=O)[C@H](CC(C)C)NC(=O)[C@H](CCCNC(=N)N)NC(=O)[C@H](CCC(N)=O)NC(=O)[C@@H](NC(=O)[C@@H](NC(=O)[C@@H]1CSSC[C@H](NC(=O)CN)C(=O)N[C@@H](CCCNC(=N)N)C(=O)N[C@@H](Cc2ccccc2)C(=O)NCC(=O)N[C@@H]([C@@H](C)O)C(=O)N1)[C@@H](C)O)C(C)C)C(=O)N[C@@H](Cc1ccc(O)cc1)C(=O)N[C@@H](CCC(N)=O)C(=O)N[C@@H](Cc1ccccc1)C(=O)N[C@H](C(=O)N[C@@H](CC(=O)O)C(=O)N[C@@H](CCCCN)C(=O)N[C@@H](Cc1ccccc1)C(=O)N[C@@H](CCCCN)C(=O)N[C@@H](CC(=O)O)C(=O)N[C@@H](CC(N)=O)C(=O)N[C@H](C(=O)N[C@@H](C)C(=O)N1CCC[C@H]1C(=O)N[C@@H](CCCNC(=N)N)C(=O)N[C@@H](CO)C(=O)N[C@@H](CCCCN)C(=O)N[C@H](C(=O)N[C@@H](CO)C(=O)N1CCC[C@H]1C(=O)N[C@@H](CCC(N)=O)C(=O)N[C@H](C(=O)N1C[C@H](O)C[C@H]1C(N)=O)[C@@H](C)O)[C@@H](C)CC)C(C)C)[C@@H](C)O [compound 212] (H-GCRFGTCTVQRLAHQIYQFTDKFKDNVAPRSKISPQT[Hyp]-NH2; disulfide 2-7; N-terminus assumed)	1.900	> 5000	0.153
CC[C@H](C)[C@H](NC(=O)[C@H](CCC(N)=O)NC(=O)[C@H](Cc1c[nH]cn1)NC(=O)[C@H](C)NC(=O)[C@H](CC(C)C)NC(=O)[C@H](CCCNC(=N)N)NC(=O)[C@H](CCC(N)=O)NC(=O)[C@@H](NC(=O)[C@@H](NC(=O)[C@@H]1CSSC[C@H](NC(=O)CN)C(=O)N[C@@H](CCCNC(=N)N)C(=O)N[C@@H]([C@@H](C)O)C(=O)NCC(=O)N[C@@H]([C@@H](C)O)C(=O)N1)[C@@H](C)O)C(C)C)C(=O)N[C@@H](Cc1c[nH]c2ccccc12)C(=O)N[C@@H](CCC(N)=O)C(=O)N[C@@H](Cc1ccccc1)C(=O)N[C@H](C(=O)N[C@@H](CC(=O)O)C(=O)N[C@@H](CCCCN)C(=O)N[C@@H](Cc1ccccc1)C(=O)N[C@@H](CCCCN)C(=O)N[C@@H](CC(=O)O)C(=O)N[C@@H](CC(N)=O)C(=O)N[C@H](C(=O)N[C@@H](C)C(=O)N1CCC[C@H]1C(=O)N[C@@H](CCCNC(=N)N)C(=O)N[C@@H](CO)C(=O)N[C@@H](CCCCN)C(=O)N[C@H](C(=O)N[C@@H](CO)C(=O)N1CCC[C@H]1C(=O)N[C@@H](CCC(N)=O)C(=O)N[C@H](C(=O)N1C[C@H](O)C[C@H]1C(N)=O)[C@@H](C)O)[C@@H](C)CC)C(C)C)[C@@H](C)O [compound 213] (H-GCRTGTCTVQRLAHQIWQFTDKFKDNVAPRSKISPQT[Hyp]-NH2; disulfide 2-7)	6.500	> 5000	0.153
